Measurements published in PubChem BioAssay (NCI).
Several values for one entry are separate records, joined by “and”; a condition that tells them apart may be missing. Equal values may be shown once.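 Cells were grown in 96-well plates and exposed to each compound for 48 hours at five concentrations; endpoints were interpolated linearly between bracketing concentrations, or set to the highest concentration if not reached. TGI is the concentration that stops growth completely.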

What was measured:
Experiment in all cases: inhibition of tumour cell growth, NCI panel, 48 h
BT-549 breast = system: BT-549 breast
DLD-1 colon = system: DLD-1 colon
DMS 273 small cell lung = system: DMS 273 small cell lung
DU-145 prostate = system: DU-145 prostate
HS 578T breast = system: HS 578T breast
LXFL 529 NSCLC = system: LXFL 529 NSCLC
M19-MEL melanoma = system: M19-MEL melanoma
MDA-MB-231 breast = system: MDA-MB-231 breast
MDA-MB-435 = system: MDA-MB-435
NCI/ADR-RES ovarian = system: NCI/ADR-RES ovarian
XF 498 CNS = system: XF 498 CNS
HOP-18 NSCLC = system: HOP-18 NSCLC
SNB-78 CNS = system: SNB-78 CNS

Compound | TGI (BT-549 breast) | TGI (DLD-1 colon) | TGI (DMS 273 small cell lung) | TGI (DU-145 prostate) | TGI (HS 578T breast) | TGI (LXFL 529 NSCLC) | TGI (M19-MEL melanoma) | TGI (MDA-MB-231 breast) | TGI (MDA-MB-435) | TGI (NCI/ADR-RES ovarian) | TGI (XF 498 CNS) | TGI (HOP-18 NSCLC) | TGI (SNB-78 CNS)
O=C1C2=C(c3ccccc31)C(c1ccccc1)N1C(=O)CSC1=N2 (stereo not drawn) | 66.5 µM | > 100 µM | > 100 µM | > 100 µM | 82.2 µM | > 100 µM | > 100 µM | > 100 µM | 37.3 µM | 59.1 µM | > 100 µM | – | –
NC(=O)c1ccccc1NC(=O)C(=O)Cc1nc2ccccc2[nH]c1=O | – | > 100 µM | > 100 µM | – | – | > 100 µM | > 100 µM | – | – | – | – | – | –
O=[N+]([O-])c1ccc(C2CC(c3ccccc3Cl)=Nc3ccccc3S2=O)cc1 (stereo not drawn) | 31.1 µM | 4.1 µM | 8.87 µM | 34.1 µM | 7.46 µM | 3.54 µM | 6.89 µM | 5.29 µM | – | – | 18.4 µM | 39.5 µM | 56 µM
CC(=O)NC1C(OCc2ccccc2)OC(CO)C(O)C1OC(C)C(=O)N[C@@H](C)C(=O)N[C@H](CCC(=O)OCCNc1c2ccccc2nc2cccc([N+](=O)[O-])c12)C(N)=O (stereo partly drawn) | – | 0.0128 µM | 0.00433 µM | – | – | 0.00267 µM | – | – | – | – | – | 0.00289 µM and 0.00803 µM | 0.0809 µM
CN(C)C(=Nc1nc(=[N+](C)C)ss1)N(C)C | – | > 100 µM | > 100 µM | – | – | > 100 µM | > 100 µM | – | – | – | > 100 µM | > 100 µM | –
O=C1NC(=O)C(=Nc2cccc3c(=O)[nH][nH]c(=O)c23)C(c2nc3ccccc3s2)C1=O (stereo not drawn) | – | > 100 µM | > 100 µM | – | – | > 100 µM | > 100 µM | – | – | – | > 100 µM | > 100 µM | > 100 µM
CCN(CC)c1ccc(N=Nc2ccc([N+](=O)[O-])cc2OC(=O)/C=C/c2ccccc2)c(OC(=O)/C=C/c2ccccc2)c1 | – | > 100 µM | > 100 µM | – | – | > 100 µM | > 100 µM | – | – | – | > 100 µM | 9.04 µM | > 100 µM
CC1(C)O[C@@H](CCl)C[C@H](C#N)O1 | – | > 100 µM | > 100 µM | – | – | – | > 100 µM | – | – | – | > 100 µM | > 100 µM | > 100 µM
Cc1cccc(C(C)C)c1N1C(=O)C(=O)C(c2nc3ccccc3o2)C(=O)C1=O | – | > 100 µM | > 100 µM | – | – | > 100 µM | > 100 µM | – | – | – | 69.1 µM | > 100 µM | > 100 µM
O=C(/C=C/c1ccco1)c1ccc(NCc2nc3ccccc3[nH]2)cc1 | – | 32.4 µM | 35.8 µM | – | – | 28.5 µM | 29.4 µM | – | – | – | – | 44.5 µM | 58.4 µM
O=[N+]([O-])c1ccc(-c2noc(-c3ccc(Cl)cc3)c2C2=NCCN2)cc1 | – | > 100 µM | – | – | – | > 100 µM | > 100 µM | – | – | – | > 100 µM | > 100 µM | > 100 µM
CCC/C=C1\CCC(CN(C)C)C1=O (stereo not drawn) | – | 5.54 µM | 27.1 µM | – | – | 3.33 µM | 26.7 µM | – | – | – | 11.1 µM | 39 µM | –
O=[N+]([O-])c1ccc(Cl)c(C2CC(c3cccc4ccccc34)=Nc3ccccc3S2)c1 (stereo not drawn) | – | 28.1 µM | > 100 µM | – | – | 88.9 µM | > 66.1 µM | – | – | – | – | > 100 µM | > 66.7 µM
NC(=O)c1c([N+](=O)[O-])cc(C(F)(F)F)cc1[N+](=O)[O-] | – | > 100 µM | > 100 µM | – | – | > 100 µM | – | – | – | – | > 100 µM | > 100 µM | > 100 µM
S=c1[nH]nc(Cc2ccccc2)c(=S)[nH]1 | 96.9 µM | > 100 µM | > 100 µM | > 100 µM | > 100 µM | > 100 µM | > 100 µM | > 100 µM | > 100 µM | > 100 µM | > 100 µM | > 100 µM | > 100 µM
Cc1nnc2c3nnc(C)n3c3ccccc3n12 | – | > 100 µM | > 100 µM | – | – | > 100 µM | – | – | – | – | > 100 µM | – | > 100 µM
O=C(CC1(O)C(=O)Nc2ccc(Br)cc21)c1ccc(Cl)cc1Cl (stereo not drawn) | – | > 100 µM | – | – | – | > 100 µM | 29.1 µM | – | – | – | – | – | > 100 µM
Cc1cc(-c2ccccc2)nc(Nc2nc3ccccc3o2)n1 | – | > 100 µM | – | – | – | > 100 µM | > 100 µM | – | – | – | > 100 µM | – | > 100 µM
CCOc1ccc2c(c1)[n+]([O-])c(-c1ccc(Br)cc1)c(N)[n+]2[O-] | – | > 100 µM | > 100 µM | – | – | > 100 µM | > 100 µM | – | – | – | > 100 µM | > 100 µM | > 100 µM
